In ChEMBL document CHEMBL3045726, “Fungicidal Activity of Pyrazolylpyrimidines” (1990):
In brackets after ≈: the same amount, converted by molar mass.

Columns and labels:
Format in all cases: functional
Pyricularia oryzae [1] = experiment: Fungicidal activity against Magnaporthe oryzae by agar dilution method
Pyricularia oryzae [2] = experiment: Fungicidal activity against Magnaporthe oryzae in rice seedlings assessed as control of rice blast at 250 ppm by curative foliar treatment
Podosphaera fuliginea [3] = experiment: Fungicidal activity against Podosphaera fuliginea in cucumber assessed as control of cucumber powdery mildew at 62.5 ppm measured after 10 days of inoculation
Podosphaera fuliginea [4] = experiment: Fungicidal activity against Podosphaera fuliginea in cucumber assessed as control of cucumber powdery mildew at 62.5 ppm measured after 7 days of inoculation
Podosphaera fuliginea [5] = experiment: Fungicidal activity against Podosphaera fuliginea in cucumber assessed as control of cucumber powdery mildew at 125 ppm measured after 10 days of inoculation
Nakataea oryzae = experiment: Fungicidal activity against Magnaporthe salvinii by agar dilution method
Podosphaera fuliginea [6] = experiment: Fungicidal activity against Podosphaera fuliginea in cucumber assessed as control of cucumber powdery mildew at 125 ppm measured after 7 days of inoculation
Pyricularia oryzae [7] = experiment: Fungicidal activity against Magnaporthe oryzae in rice seedlings assessed as control of rice blast at 500 ppm by curative foliar treatment
Pyricularia oryzae [8] = experiment: Fungicidal activity against Magnaporthe oryzae in rice seedlings assessed as control of rice blast at 500 ppm by preventive foliar treatment

Structure (SMILES): Cc1cc(O)nc(-n2nc(C)cc2C)n1
- MIC (Pyricularia oryzae [1]): 12.5 µg/mL (≈ 61.2 µM)
- Activity (Pyricularia oryzae [2]): 69%

Structure (SMILES): CCCCCCc1c(C)nc(-n2nc(C)cc2C)nc1O
- Activity (Podosphaera fuliginea [3]): 98.4%
- Activity (Podosphaera fuliginea [4]): 99.4%
- MIC (Pyricularia oryzae [1]): 6.25 µg/mL (≈ 21.7 µM)
- Activity (Podosphaera fuliginea [5]): 100%
- MIC (Nakataea oryzae): 6.25 µg/mL (≈ 21.7 µM)
- Activity (Podosphaera fuliginea [6]): 100%
- Activity (Pyricularia oryzae [7]): 89%
- Activity (Pyricularia oryzae [8]): 81%

Structure (SMILES): Cc1cc(C)n(-c2nc(O)c3c(n2)CCC3)n1
- MIC (Pyricularia oryzae [1]): 6.25 µg/mL (≈ 27.1 µM)
- Activity (Pyricularia oryzae [2]): 15%
- MIC (Nakataea oryzae): 6.25 µg/mL (≈ 27.1 µM)
- Activity (Pyricularia oryzae [8]): 13%

Structure (SMILES): CCCCCc1c(C)nc(-n2nc(C)cc2C)nc1O
- Activity (Podosphaera fuliginea [3]): 100%
- Activity (Podosphaera fuliginea [4]): 100%
- MIC (Pyricularia oryzae [1]): 6.25 µg/mL (≈ 22.8 µM)
- Activity (Podosphaera fuliginea [5]): 100%
- MIC (Nakataea oryzae): 0.2 µg/mL (≈ 0.729 µM)
- Activity (Podosphaera fuliginea [6]): 100%
- Activity (Pyricularia oryzae [7]): 94%
- Activity (Pyricularia oryzae [8]): 81%

Structure (SMILES): Cc1cc(C)n(-c2nc(O)c3c(n2)CCCC3)n1
- MIC (Pyricularia oryzae [1]): 3.12 µg/mL (≈ 12.8 µM)
- Activity (Pyricularia oryzae [2]): 0%
- Activity (Pyricularia oryzae [8]): 0%

Structure (SMILES): Cc1cc(C)n(-c2nc(C)c(C)c(O)n2)n1
- MIC (Pyricularia oryzae [1]): 12.5 µg/mL (≈ 57.3 µM)
- Activity (Pyricularia oryzae [2]): 0%
- MIC (Nakataea oryzae): 100 µg/mL (≈ 458 µM)
